Values of other authors as cited in patent US20250268823A1, “Aqueous Quetiapine Solutions” (RELIIS LTD, priority 2022, published 2025).
Structures can show the parent of a compound that is named as a salt.

Key:
[1] = biological target: dopaminergic D1 receptors (Homo sapiens, UniProt P21728)
[2] = biological target: dopaminergic D2 receptors (Homo sapiens, UniProt P14416)
dopaminergic D2 receptors, sequence (P14416 whole entry): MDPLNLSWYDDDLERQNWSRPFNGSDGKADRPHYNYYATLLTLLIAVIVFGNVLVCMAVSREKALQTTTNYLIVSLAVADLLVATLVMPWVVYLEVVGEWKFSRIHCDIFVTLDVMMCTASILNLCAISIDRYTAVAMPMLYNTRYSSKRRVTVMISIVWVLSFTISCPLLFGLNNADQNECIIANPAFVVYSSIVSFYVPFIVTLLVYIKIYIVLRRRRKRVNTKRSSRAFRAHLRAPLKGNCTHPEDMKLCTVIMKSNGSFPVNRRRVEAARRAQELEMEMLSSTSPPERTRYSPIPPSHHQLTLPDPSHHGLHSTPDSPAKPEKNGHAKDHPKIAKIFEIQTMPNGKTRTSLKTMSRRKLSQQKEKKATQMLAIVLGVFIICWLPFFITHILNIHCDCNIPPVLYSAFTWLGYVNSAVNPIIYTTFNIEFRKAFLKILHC

dopaminergic D1 receptors, sequence (P21728 whole entry): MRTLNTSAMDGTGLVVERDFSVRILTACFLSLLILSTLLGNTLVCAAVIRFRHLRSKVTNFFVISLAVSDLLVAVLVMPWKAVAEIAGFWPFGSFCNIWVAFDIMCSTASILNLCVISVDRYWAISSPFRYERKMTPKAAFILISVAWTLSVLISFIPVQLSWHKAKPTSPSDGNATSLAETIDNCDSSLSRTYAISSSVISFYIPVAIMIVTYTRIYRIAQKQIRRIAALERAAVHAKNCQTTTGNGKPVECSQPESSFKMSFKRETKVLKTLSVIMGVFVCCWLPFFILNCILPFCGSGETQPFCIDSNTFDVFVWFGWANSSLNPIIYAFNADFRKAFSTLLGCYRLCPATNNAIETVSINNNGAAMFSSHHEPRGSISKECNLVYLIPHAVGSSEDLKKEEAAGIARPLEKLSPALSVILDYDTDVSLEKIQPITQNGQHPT

Row | SMILES | solubility in water | affinity to D1 receptors [1] | affinity to D2 receptors [2] | binding at D2 receptors [2] | affinity to α1-adrenergic receptors (α1-adrenergic receptors) | affinity to α2-adrenergic receptors (α2-adrenergic receptors)
1 | OCCOCCN1CCN(C2=Nc3ccccc3Sc3ccccc32)CC1 [quetiapine fumarate] | about 0.04 mg/ml | – | – | – | – | –
2 | OCCOCCN1CCN(C2=Nc3ccccc3Sc3ccccc32)CC1 [Quetiapine, 2-(2-(4-(dibenzo[b,f][1,4]thiazepin-11-yl)piperazin-1-yl)ethoxy)ethanol] | – | major affinity | major affinity | low binding | moderate affinity | moderate affinity
